Assay results published in ChEMBL document CHEMBL1201862, “PubChem BioAssay data set” (2004).
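Tested at 5 concentrations; 48 h exposure; 96-well plates; endpoints linearly interpolated, else capped at highest concentration. The concentration for 50% growth inhibition is given as GI50.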 Activity calls are given as the source filed them. Cut-off read from the data, not from the text of the source: active = GI50 up to about 1.1 µM and inactive = higher.

How the values were obtained:
Experiment in all cases: growth of human tumour cells (NCI), 48 h
[1] = system: SW-620
[2] = system: SK-MEL-28
[3] = system: KM12
[4] = system: SF-295
[5] = system: OVCAR-5
[6] = system: Hs-578T
[7] = system: NCI-H226
[8] = system: LOX IMVI
[9] = system: SNB-75
[10] = system: RXF 393
[11] = system: UO-31
[12] = system: NCI/ADR-RES
[13] = system: EKVX
[14] = system: UACC-257
[15] = system: SR
[16] = system: IGROV-1
[17] = system: MDA-MB-435
[18] = system: A498
[19] = system: U-251

SMILES	GI50 [1]	GI50 [2]	GI50 [3]	GI50 [4]	GI50 [5]	GI50 [6]	GI50 [7]	GI50 [8]	GI50 [9]	GI50 [10]	GI50 [11]	GI50 [12]	GI50 [13]	GI50 [14]	GI50 [15]	GI50 [16]	GI50 [17]	GI50 [18]	GI50 [19]
COC(=O)N1C2C(C[C@@]1(C)C(=O)OC)c1ccccc1N2S(=O)(=O)c1ccccc1 (stereo not given in full)	> 100 µM (inactive)	> 100 µM (inactive)	> 100 µM (inactive)	> 100 µM (inactive)	> 100 µM (inactive)	> 100 µM (inactive)	> 100 µM (inactive)	> 100 µM (inactive)	> 100 µM (inactive)	> 100 µM (inactive)	> 100 µM (inactive)	> 100 µM (inactive)	> 100 µM (inactive)	> 100 µM (inactive)	> 100 µM (inactive)	> 100 µM (inactive)	> 100 µM (inactive)	–	–
NS(=O)(=O)c1nnc(/N=C(/CCC(=O)O)C(=O)O)s1	> 100 µM (inactive)	> 100 µM (inactive)	20.5 µM (inactive)	> 100 µM (inactive)	> 100 µM (inactive)	> 100 µM (inactive)	> 100 µM (inactive)	> 100 µM (inactive)	> 100 µM (inactive)	–	> 100 µM (inactive)	> 100 µM (inactive)	> 100 µM (inactive)	> 100 µM (inactive)	> 100 µM (inactive)	> 100 µM (inactive)	> 100 µM (inactive)	> 100 µM (inactive)	> 100 µM (inactive)
O=C1C2C=CC1C1C(=O)OC(=O)C21 (stereo not given)	> 100 µM (inactive)	> 100 µM (inactive)	> 100 µM (inactive)	> 100 µM (inactive)	> 100 µM (inactive)	> 100 µM (inactive)	> 100 µM (inactive)	> 100 µM (inactive)	> 100 µM (inactive)	–	> 100 µM (inactive)	> 100 µM (inactive)	> 100 µM (inactive)	> 100 µM (inactive)	> 100 µM (inactive)	> 100 µM (inactive)	> 100 µM (inactive)	> 100 µM (inactive)	> 100 µM (inactive)
C=CC(Br)(CBr)CCC(Br)C(C)(C)Cl (stereo not given)	2.05 µM (inactive)	2.36 µM (inactive)	1.6 µM (inactive)	1.82 µM (inactive)	7.11 µM (inactive)	3.4 µM (inactive)	25.3 µM (inactive)	–	2.71 µM (inactive)	2.99 µM (inactive)	1.65 µM (inactive)	3.92 µM (inactive)	8.18 µM (inactive)	3.87 µM (inactive)	1.66 µM (inactive)	5.31 µM (inactive)	2.3 µM (inactive)	5.16 µM (inactive)	1.53 µM (inactive)
CC(=O)/C=C1\Nc2sc(C)c(C)c2C(=O)S1	63.5 µM (inactive)	> 100 µM (inactive)	29.2 µM (inactive)	48 µM (inactive)	> 100 µM (inactive)	20.5 µM (inactive)	29.2 µM (inactive)	44.6 µM (inactive)	24 µM (inactive)	> 100 µM (inactive)	54 µM (inactive)	37.1 µM (inactive)	24.9 µM (inactive)	70 µM (inactive)	–	29.6 µM (inactive)	47.3 µM (inactive)	> 100 µM (inactive)	50.2 µM (inactive)
O=C(C/N=C(\CN(c1ccccc1)c1ccccc1)Oc1c(Cl)cc(Cl)cc1Cl)n1cnc2ccccc21	81.7 µM (inactive)	> 100 µM (inactive)	96.6 µM (inactive)	> 100 µM (inactive)	28 µM (inactive)	> 100 µM (inactive)	19.5 µM (inactive)	–	> 100 µM (inactive)	< 0.01 µM (active)	–	38.3 µM (inactive)	50.7 µM (inactive)	> 100 µM (inactive)	33.9 µM (inactive)	39.6 µM (inactive)	76.6 µM (inactive)	–	82.6 µM (inactive)
Clc1cc2c(cc1Cl)CC(NCCN1CCCC1)CC2 (stereo not given)	18.9 µM (inactive)	10.2 µM (inactive)	15.2 µM (inactive)	16.1 µM (inactive)	14.6 µM (inactive)	21.2 µM (inactive)	15.2 µM (inactive)	13.3 µM (inactive)	–	–	11.1 µM (inactive)	13.7 µM (inactive)	18.7 µM (inactive)	7.82 µM (inactive)	10.6 µM (inactive)	15.4 µM (inactive)	3.73 µM (inactive)	13.7 µM (inactive)	15.9 µM (inactive)
Cc1cc(Nc2ccc(S(=O)(=O)O)cc2)c2ccccc2n1	> 100 µM (inactive)	> 100 µM (inactive)	> 100 µM (inactive)	> 100 µM (inactive)	> 100 µM (inactive)	> 100 µM (inactive)	> 100 µM (inactive)	> 100 µM (inactive)	> 100 µM (inactive)	–	> 100 µM (inactive)	> 100 µM (inactive)	> 100 µM (inactive)	> 100 µM (inactive)	> 100 µM (inactive)	> 100 µM (inactive)	> 100 µM (inactive)	> 100 µM (inactive)	> 100 µM (inactive)
CC(C)(C)OC(=O)N(CCCCNC(=O)C(F)(F)F)CCCNC(=O)C(F)(F)F	> 100 µM (inactive)	> 100 µM (inactive)	> 100 µM (inactive)	> 100 µM (inactive)	> 100 µM (inactive)	> 100 µM (inactive)	> 100 µM (inactive)	–	> 100 µM (inactive)	> 100 µM (inactive)	> 100 µM (inactive)	> 100 µM (inactive)	> 100 µM (inactive)	> 100 µM (inactive)	> 100 µM (inactive)	> 100 µM (inactive)	> 100 µM (inactive)	> 100 µM (inactive)	> 100 µM (inactive)
C[C@]12Cc3cnc(-c4ccccc4)nc3C[C@@H]1CC[C@@H]1[C@@H]2CC[C@@]2(C)[C@H]1CC[C@]2(C)O	21.2 µM (inactive)	18.6 µM (inactive)	13.9 µM (inactive)	14.8 µM (inactive)	14.3 µM (inactive)	17.4 µM (inactive)	26.1 µM (inactive)	4.6 µM (inactive)	6.12 µM (inactive)	–	3.03 µM (inactive)	15.4 µM (inactive)	25.2 µM (inactive)	20.2 µM (inactive)	6.59 µM (inactive)	19.7 µM (inactive)	20.8 µM (inactive)	16.3 µM (inactive)	16 µM (inactive)
O=C(c1ccccc1)c1ccc2[nH]c(-c3c(Cl)c(Cl)c(Cl)c(Cl)c3C(=O)N/N=C/c3cccc(Oc4ccccc4)c3)nc2c1	56.1 µM (inactive)	> 100 µM (inactive)	> 100 µM (inactive)	54.7 µM (inactive)	> 100 µM (inactive)	> 100 µM (inactive)	84.1 µM (inactive)	> 100 µM (inactive)	60.8 µM (inactive)	68.2 µM (inactive)	> 100 µM (inactive)	95.1 µM (inactive)	> 100 µM (inactive)	> 100 µM (inactive)	36.3 µM (inactive)	> 100 µM (inactive)	38.1 µM (inactive)	–	54.7 µM (inactive)
COC(=O)C1Cc2c([nH]c3ccccc23)-c2[nH]c3ccccc3c2CC(NC(C)=O)C(=O)N2CCCC2C(=O)N1 (stereo not given)	> 100 µM (inactive)	> 100 µM (inactive)	–	> 100 µM (inactive)	> 100 µM (inactive)	> 100 µM (inactive)	0.176 µM (active)	> 100 µM (inactive)	> 100 µM (inactive)	> 100 µM (inactive)	> 100 µM (inactive)	> 100 µM (inactive)	> 100 µM (inactive)	> 100 µM (inactive)	> 100 µM (inactive)	24.8 µM (inactive)	> 100 µM (inactive)	–	> 100 µM (inactive)
O=C(c1ccco1)N(Cc1ccco1)C(=S)Nc1ccccc1	12.4 µM (inactive)	15 µM (inactive)	8.2 µM (inactive)	32.2 µM (inactive)	36.5 µM (inactive)	19.3 µM (inactive)	66.8 µM (inactive)	7.21 µM (inactive)	18.5 µM (inactive)	16 µM (inactive)	16.5 µM (inactive)	21.9 µM (inactive)	45.9 µM (inactive)	15.7 µM (inactive)	3.1 µM (inactive)	16.1 µM (inactive)	10.6 µM (inactive)	–	28.3 µM (inactive)
COc1ccc2oc(=N)c(C(N)=S)cc2c1	25.5 µM (inactive)	30.4 µM (inactive)	22.2 µM (inactive)	37.1 µM (inactive)	29.9 µM (inactive)	23.2 µM (inactive)	19.9 µM (inactive)	15.4 µM (inactive)	24.9 µM (inactive)	17 µM (inactive)	19.6 µM (inactive)	16.8 µM (inactive)	29.6 µM (inactive)	26.9 µM (inactive)	20 µM (inactive)	29.6 µM (inactive)	25.1 µM (inactive)	–	29 µM (inactive)
CC1=C(/C=C/C(C)=C/C=C/C(C)=C/C(=O)Nc2ccc(O)cc2)C(C)(C)CCC1 [FENRETINIDE]	5.48 µM (inactive)	4.23 µM (inactive)	3.92 µM (inactive)	2.85 µM (inactive)	10.6 µM (inactive)	3.33 µM (inactive)	5.13 µM (inactive)	1.74 µM (inactive)	7.03 µM (inactive)	2.04 µM (inactive)	3.26 µM (inactive)	2.71 µM (inactive)	9.25 µM (inactive)	9.71 µM (inactive)	–	2.02 µM (inactive)	3.09 µM (inactive)	4.73 µM (inactive)	4.65 µM (inactive)
